According to patent US20220096379A1, “SELF-EMULSIFYING DRUG FORMULATION FOR IMPROVING MEMBRANE PERMEABILITY OF COMPOUND” (Chugai Seiyaku Kabushiki Kaisha, priority 2016, published 2022):
Read-outs that look alike come from different tables or passages of the source. Starred links: 1 amine or outer side, 2 acyl side, 3 side chain; linkers in the order of their positions; H or OH if unused. Positions of bridges follow the written chain, without caps; N, C: chain ends. Non-standard residues stand in square brackets, D forms with d. Residues, ends and D or L forms follow the SMILES beside them. *: point of attachment. NMeF = CN[C@@H](Cc1ccccc1)C(=O)O; NMeI = CC[C@H](C)[C@H](NC)C(=O)O; NMeβAla = CN(CCC(=O)[*:2])[*:1]; NMeL = CN[C@@H](CC(C)C)C(=O)O; NMeA = CN[C@@H](C)C(=O)O; Piperidide = C1CCN(*)CC1; Sar = CNCC(=O)O; tBu = CC(C)(C)*

Experiments:
[1] = cited from earlier work
physchem = conditions: pH 7.4
Experimental: (§1) A two-phase separated solution of n-octanol and a pH 7.4 buffer was prepared, a DMSO solution of the drug was added to the prepared two-phase-separated solution. After shaking (room temperature, 1800 rpm, two hours), the solution was centrifuged (3000 rpm, ten minutes), only the buffer fractions were collected, and drug concentrations in the buffer fractions were measured by LC/MS. Log D (pH 7.4) was calculated from the measured drug concentrations.

[2] = Caco-2 membrane permeability evaluation (improved method, 20-24 h pre-incubation, 96-well); format: in vitro ADME; conditions: human; for Papp at 180 min: commercially available middle molecular weight compounds; for Papp A→B at 180 min: cyclic peptides, pre-incubation 20-24 h, apical pH 6.0, basal pH 7.4 4% BSA
Experimental: After Caco-2 cells were cultured on a 96-well transwell for three weeks, DMEM+FaSSIF (1% DMSO)+the compound was added to the Apical side and DMEM was added to the Basal side, and this was pre-incubated under 5% CO2 at 37° C. and 80 rpm for 20 hours to 24 hours. After pre-incubation, the pre-incubation solutions on the Apical and Basal sides were removed by aspiration and washed, a permeability test was initiated by adding FaSSIF/HBSS buffer (pH 6.0) containing the compound to the Apical side and HBSS buffer (pH 7.4) containing 4% BSA to the Basal side. Each well was shaken under 5% CO2, at 37° C. and 80 rpm. […] The permeability coefficient was calculated from the amount of permeation.
More specifically, after Caco-2 cells were cultured on a 96-well transwell for three weeks, DMEM+FaSSIF (1% DMSO)+the compound was added to the Apical side and DMEM was added to the Basal side, and this was pre-incubated at 5% CO2, 37° C., and 80 rpm for 20 hours to 24 hours. After pre-incubation, the pre-incubation solutions on the Apical side and on the Basal side were removed by aspiration and washed, FaSSIF/HBSS buffer (1% DMSO) (pH 6.0) containing the compound was added to the Apical side, and HBSS buffer (4% BSA) (pH 7.4) was added to the Basal side, and membrane permeability assays were initiated. […] From the amount of permeation, the membrane permeability coefficient (Papp) was calculated.

[3] = Log D (pH 7.4) measurement, n-octanol/buffer; conditions: n-octanol/pH 7.4 buffer
Experimental: as §1

Caco-2 cells = conditions: cited from earlier work; for decrease in the concentration on the Apical side: 120 minutes of incubation

Row | Structure (SMILES) | Papp at 180 min [2] [×10⁻⁶ cm/s] | logD [3] | other results
1 | CC[C@H](C)[C@H]1C(=O)N[C@@H](COC(C)(C)C)C(=O)N[C@H](C(=O)N2CCCCC2)CC(=O)N(C)[C@@H](C)C(=O)N(C)[C@@H](Cc2ccccc2)C(=O)N(C)CC(=O)N(C)[C@@H](CC(C)C)C(=O)N[C@@H]([C@@H](C)O)C(=O)N(C)[C@@H](C)C(=O)N(C)[C@@H](CC(C)C)C(=O)N1C [Compound (2)] ([NMeA][NMeF][Sar][NMeL]T[NMeA][NMeL][NMeI]S(tBu)D-Piperidide; lactam N-10) | – | – | intrinsic hepatic clearance CLh int ([1]; human liver microsomes): 48 μL/min/mg protein; logD at 2 h (physchem): 4.43
2 | CO[C@H]1C[C@@H]2CC[C@@H](C)[C@@](O)(O2)C(=O)C(=O)N2CCCC[C@H]2C(=O)O[C@H]([C@H](C)C[C@@H]2CC[C@@H](O)[C@H](OC)C2)CC(=O)[C@H](C)/C=C(\C)[C@@H](O)[C@@H](OC)C(=O)[C@H](C)C[C@H](C)/C=C/C=C/C=C/1C [Rapamycin] | 1.84 | 4.36 | –
3 | C=CC[C@@H]1/C=C(\C)C[C@H](C)C[C@H](OC)[C@H]2O[C@@](O)(C(=O)C(=O)N3CCCC[C@H]3C(=O)O[C@H](/C(C)=C/[C@@H]3CC[C@@H](O)[C@H](OC)C3)[C@H](C)[C@@H](O)CC1=O)[C@H](C)C[C@@H]2OC [Tacrolimus] | 2.48 | 4.19 | –
4 | CCC(C)n1ncn(-c2ccc(N3CCN(c4ccc(OCC5COC(Cn6cncn6)(c6ccc(Cl)cc6Cl)O5)cc4)CC3)cc2)c1=O (stereo not drawn) [Itraconazole] | 1.06 | 4.29 | –
5 | CC(C)C[C@@H]1NC(=O)[C@H](Cc2ccccc2)N(C)C(=O)[C@H](Cc2ccccc2)N(C)C(=O)[C@H](CC(C)C)NC(=O)[C@H](C)N(C)C(=O)[C@H]([C@@H](C)O)NC(=O)[C@H](C)N(C)C(=O)C[C@@H](C(=O)N2CCCCC2)NC(=O)[C@H](CC(C)C)N(C)C1=O [Compound (4)] ([NMeA]T[NMeA]L[NMeF][NMeF]L[NMeL]D-Piperidide; lactam N-9) | – | – | Papp A→B at 180 min [2]: 4.14 ×10⁻⁶ cm/s; intrinsic hepatic clearance CLh int ([1]; human liver microsomes): 189 μL/min/mg protein; logD at 2 h [3]: 5.17
6 | C[C@H]1O[C@@H](O[C@H]2[C@@H](O)C[C@H](O[C@H]3[C@@H](O)C[C@H](O[C@H]4CC[C@@]5(C)[C@H](CC[C@@H]6[C@@H]5C[C@@H](O)[C@]5(C)[C@@H](C7=CC(=O)OC7)CC[C@]65O)C4)O[C@@H]3C)O[C@@H]2C)C[C@H](O)[C@@H]1O [Digoxin] | 0.264 | – | –
7 | CC[C@H](C)[C@H]1C(=O)N[C@H](C(=O)N2CCCCC2)CC(=O)N[C@H](C(C)C)C(=O)N(C)[C@@H](CC(C)C)C(=O)N(C)[C@@H](Cc2ccccc2)C(=O)N(C)[C@@H](C)C(=O)N[C@@H]([C@@H](C)O)C(=O)N(C)CC(=O)N(C)[C@@H](CC(C)C)C(=O)N[C@@H](COC(C)(C)C)C(=O)N1C [Compound (3)] ([dV][NMeL][NMeF][NMeA]T[Sar][NMeL]S(tBu)[NMeI]D-Piperidide; lactam N-10) | – | – | Papp A→B at 180 min [2]: 0.249 ×10⁻⁶ cm/s; intrinsic hepatic clearance CLh int ([1]; human liver microsomes): 46 μL/min/mg protein; logD at 2 h (physchem): 4.18
8 | CC[C@H](C)[C@H]1C(=O)N[C@H](C(=O)N2CCCCC2)CC(=O)N[C@H](C(C)C)C(=O)N(C)[C@@H](Cc2ccccc2)C(=O)N(C)[C@@H](CC(C)C)C(=O)N[C@@H]([C@@H](C)O)C(=O)N(C)CC(=O)N(C)[C@@H](CC(C)C)C(=O)N[C@@H](COC(C)(C)C)C(=O)N1C [Compound (5)] ([dV][NMeF][NMeL]T[Sar][NMeL]S(tBu)[NMeI]D-Piperidide; lactam N-9) | – | – | Papp A→B at 180 min [2]: 1.85 ×10⁻⁶ cm/s; intrinsic hepatic clearance CLh int ([1]; human liver microsomes): 58 μL/min/mg protein; logD at 2 h [3]: 4.31
9 | CC(C)C[C@H]1C(=O)N(C)[C@@H](CC(C)C)C(=O)N[C@H](C(=O)N2CCCCC2)CC(=O)N(C)CCC(=O)N(C)[C@@H](Cc2ccccc2)C(=O)N[C@@H]([C@@H](C)O)C(=O)N(C)CC(=O)N[C@@H](COC(C)(C)C)C(=O)N1C [Compound (6)] ([NMeβAla][NMeF]T[Sar]S(tBu)[NMeL][NMeL]D-Piperidide; lactam N-8) | – | – | intrinsic hepatic clearance CLh int ([1]; human, microsomes): 86 μL/min/mg protein; logD at 2 h (physchem): 3.19
10 | CC[C@H](C)[C@H]1C(=O)N(C)[C@@H](C)C(=O)N(C)[C@@H](Cc2ccccc2)C(=O)N[C@@H]([C@@H](C)O)C(=O)N(C)[C@@H](Cc2ccccc2)C(=O)N(C)[C@@H](CC(C)C)C(=O)N2CCC[C@H]2C(=O)N[C@H](C(=O)N2CCCCC2)CC(=O)N[C@@H](C)C(=O)NCC(=O)N(C)[C@@H](CC(C)C)C(=O)N1C [Compound (1)] (AG[NMeL][NMeI][NMeA][NMeF]T[NMeF][NMeL]PD-Piperidide; lactam N-11) | – | – | Papp A→B at 180 min [2]: 0.262 ×10⁻⁶ cm/s; intrinsic hepatic clearance CLh int ([1]; human liver microsomes): 74 μL/min/mg protein; logD at 2 h (physchem): 5.19
11 | CC(C)NCC(O)COc1cccc2ccccc12 (stereo not drawn) [propranolol] | – | – | decrease in the concentration on the Apical side (Caco-2 cells): approximately 40%; added drug distributed in the cells after completion of incubation (Caco-2 cells): approximately 8%
12 | COCCc1ccc(OCC(O)CNC(C)C)cc1 (stereo not drawn) [metoprolol] | – | – | decrease in the concentration on the Apical side (Caco-2 cells): approximately 20%

Now from value to molecule, other results behind:

Row | Papp at 180 min [2] [×10⁻⁶ cm/s] | logD [3] | Structure (SMILES) | other results
13 | 1.08 | 3.88 | CO[C@H]1/C=C/O[C@@]2(C)Oc3c(C)c(O)c4c(c3C2=O)C2=NC3(CCN(CC(C)C)CC3)NC2=C(NC(=O)/C(C)=C\C=C\[C@H](C)[C@H](O)[C@@H](C)[C@@H](O)[C@@H](C)[C@H](OC(C)=O)[C@@H]1C)C4=O [Rifabutin] | –
14 | 0.138 | 3.36 | CC(=O)O[C@H]1C(=O)[C@@]2(C)[C@H]([C@H](OC(=O)c3ccccc3)[C@]3(O)C[C@H](OC(=O)[C@H](O)[C@@H](NC(=O)c4ccccc4)c4ccccc4)C(C)=C1C3(C)C)[C@]1(OC(C)=O)CO[C@@H]1C[C@@H]2O [Paclitaxel] | –
15 | 0.319 | 2.1 | CC[C@H]1OC(=O)[C@H](C)C(=O)[C@H](C)[C@@H](O[C@@H]2O[C@H](C)C[C@H](N(C)C)[C@H]2O)[C@](C)(OC)C[C@@H](C)C(=O)[C@H](C)[C@H]2N(CCCCn3cnc(-c4cccnc4)c3)C(=O)O[C@]12C [Telithromycin] | –
16 | 1.74 | 4.29 | CC(C)c1nc(CN(C)C(=O)N[C@H](C(=O)N[C@@H](Cc2ccccc2)C[C@H](O)[C@H](Cc2ccccc2)NC(=O)OCc2cncs2)C(C)C)cs1 [Ritonavir] | –
17 | 0.0903 | 2.82 | CCC1=C[C@@H]2CN(C1)Cc1c([nH]c3ccccc13)[C@@](C(=O)OC)(c1cc3c(cc1OC)N(C)[C@H]1[C@@](O)(C(=O)OC)[C@H](OC(C)=O)[C@]4(CC)C=CCN5CC[C@]31[C@@H]54)C2 [Vinorelbine] | –
18 | 5.12 | 2.45 | CO[C@H]1/C=C/O[C@@]2(C)Oc3c(C)c(O)c4c(O)c(c(/C=N/N5CCN(C6CCCC6)CC5)c(O)c4c3C2=O)NC(=O)/C(C)=C\C=C\[C@H](C)[C@H](O)[C@@H](C)[C@@H](O)[C@@H](C)[C@H](OC(C)=O)[C@@H]1C [Rifapentine] | –
19 | 0.382 | 0.89 | CC[C@H]1OC(=O)[C@H](C)[C@@H](O[C@H]2C[C@@](C)(OC)[C@@H](O)[C@H](C)O2)[C@H](C)[C@@H](O[C@@H]2O[C@H](C)C[C@H](N(C)C)[C@H]2O)[C@](C)(O)C[C@@H](C)C(=O)[C@H](C)[C@@H](O)[C@]1(C)O [Erythromycin] | –
20 | 0.0736 | 0.11 | C[C@@H]1[C@H](O)[C@@H](C)/C=C/C=C/C=C/C=C/C=C/C=C/C=C/[C@H](O[C@@H]2O[C@H](C)[C@@H](O)[C@H](N)[C@@H]2O)C[C@@H]2O[C@](O)(C[C@@H](O)C[C@@H](O)[C@H](O)CC[C@@H](O)C[C@@H](O)CC(=O)O[C@H]1C)C[C@H](O)[C@H]2C(=O)O [AmphotericinB] | –
21 | 0.515 | 0.62 | CC[C@H]1OC(=O)[C@H](C)[C@@H](O[C@H]2C[C@@](C)(OC)[C@@H](O)[C@H](C)O2)[C@H](C)[C@@H](O[C@@H]2O[C@H](C)C[C@H](N(C)C)[C@H]2O)[C@](C)(O)C[C@@H](C)CN(C)[C@H](C)[C@@H](O)[C@]1(C)O [Azithromycin] | –
22 | 1.73 | 1.61 | CO[C@H]1/C=C/O[C@@]2(C)Oc3c(C)c(O)c4c(O)c(c(/C=N/N5CCN(C)CC5)c(O)c4c3C2=O)NC(=O)/C(C)=C\C=C\[C@H](C)[C@H](O)[C@@H](C)[C@@H](O)[C@@H](C)[C@H](OC(C)=O)[C@@H]1C [Rifampicin] | –
23 | 0.108 | 2.04 | CC[C@H]1OC(=O)[C@H](C)[C@@H](O[C@H]2C[C@@](C)(OC)[C@@H](O)[C@H](C)O2)[C@H](C)[C@@H](O[C@@H]2O[C@H](C)C[C@H](N(C)C)[C@H]2O)[C@](C)(O)C[C@@H](C)/C(=N\OCOCCOC)[C@H](C)[C@@H](O)[C@]1(C)O [Roxithromycin] | –
